Patent US4826973A, “Delta form of aztreonam and preparation thereof” (priority 1985, dated 1989)

Legend:
[1] = Physical and processing (bulk) properties of crystalline forms; format: physicochemical; conditions: TABLE II, crystalline forms of aztreonam
[2] = Intrinsic dissolution rate of crystalline forms; format: physicochemical; conditions: TABLE II, crystalline forms of aztreonam
[3] = as described for Ser. No. 282,636; cited from earlier work
[4] = compared with α-form or simple salts of the compound; storage prior to conversion to β-form

Compound | Density [1] | Flowability [1] | Surface Area [1] | Intrinsic Dissolution Rate [2] | Hygroscopicity (background, earlier application) [3] | Shelf life [4]
C[C@H]1[C@H](NC(=O)/C(=N\OC(C)(C)C(=O)O)c2csc(N)n2)C(=O)N1S(=O)(=O)O [α-Form, [3S-[3α(Z)4β]]-3-[[(2-amino-4-thiazolyl)[(1-carboxy-1-methylethoxy)imino]acetyl]amino]-4-methyl-2-oxo-1-azetidinesulfonic acid] | low | poor | high | slow | – | –
C[C@H]1[C@H](NC(=O)/C(=N\OC(C)(C)C(=O)O)c2csc(N)n2)C(=O)N1S(=O)(=O)O [β-Form, [3S-[3α(Z),4β]]-3-[[(2-amino-4-thiazolyl)-[(1-carboxy-1-methylethoxy)imino]acetyl]amino]-4-methyl-2-oxo-1-azetidinesulfonic acid] | high | good | low | fast | substantially non-hygroscopic | –
C[C@H]1[C@H](NC(=O)/C(=N\OC(C)(C)C(=O)O)c2csc(N)n2)C(=O)N1S(=O)(=O)O [γ-Form] | low | poor | high | fast | – | –
C[C@H]1[C@H](NC(=O)/C(=N\OC(C)(C)C(=O)O)c2csc(N)n2)C(=O)N1S(=O)(=O)O [δ-Form, [3S-[3α(Z),4β]]-3-[[(2-amino-4-thiazolyl)[(1-carboxy-1-methylethoxy)imino]acetyl]amino]-4-methyl-2-oxo-1-azetidinesulfonic acid] | high | good | low | fast | – | greater than that of the α-form, or for that matter simple salts of the compound
